Data reported in BindingDB's records for patent US12552798 (Henan Zhiwei Biomedicine Co., 2026).

Experiments:
Assay in all cases: BTK, BMX, EGFR and ITK Inhibitory Assay
[1] = target: T1, Cytoplasmic tyrosine-protein kinase BMX (Homo sapiens, UniProt P51813)
T1 sequence (P51813 whole entry): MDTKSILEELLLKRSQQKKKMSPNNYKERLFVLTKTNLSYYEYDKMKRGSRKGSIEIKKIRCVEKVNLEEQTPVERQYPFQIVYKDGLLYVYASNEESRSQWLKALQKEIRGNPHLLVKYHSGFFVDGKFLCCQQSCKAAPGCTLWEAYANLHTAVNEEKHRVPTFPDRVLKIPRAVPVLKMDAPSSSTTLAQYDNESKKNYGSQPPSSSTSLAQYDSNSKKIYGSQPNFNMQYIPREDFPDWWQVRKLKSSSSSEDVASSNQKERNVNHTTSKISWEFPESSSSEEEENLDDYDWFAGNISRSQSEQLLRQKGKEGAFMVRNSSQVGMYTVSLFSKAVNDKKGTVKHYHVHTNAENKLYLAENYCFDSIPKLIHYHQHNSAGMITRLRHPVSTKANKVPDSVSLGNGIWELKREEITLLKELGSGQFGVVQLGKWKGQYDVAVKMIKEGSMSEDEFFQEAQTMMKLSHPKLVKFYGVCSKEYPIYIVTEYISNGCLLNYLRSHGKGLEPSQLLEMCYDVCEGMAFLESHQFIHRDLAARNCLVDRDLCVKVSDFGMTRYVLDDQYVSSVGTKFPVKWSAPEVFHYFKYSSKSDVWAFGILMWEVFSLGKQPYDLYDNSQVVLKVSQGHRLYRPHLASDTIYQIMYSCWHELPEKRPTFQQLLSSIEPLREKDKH
Protocol: (§1) Kinase inhibitory activities of compounds were evaluated using the Enzyme-linked immunosorbent assay (ELISA). The kinase enzyme of BTK, BMX, EGFR and ITK were purchased from Carna Bioscience (Kobe, Japan). A total of 10 ng/mL antiphosphotyrosine (PY713) antibody (abcam, Cambridge Science Park, UK) was precoated in 96-well ELISA plates. The kinase enzymes in each reaction well were set to BTK (101.25 ng/mL), BMX (90 ng/mL), EGFR (90 ng/mL) or ITK (120 ng/mL) and incubated with indicated compounds in 1× reaction buffer (50 mmol/L HEPES pH 7.4, 20 mmol/L MgCl2, 0.1 mmol/L MnCl2, 1 mmol/L DTT) containing 20 μmol/L (the final concentration of substrate in ITK reaction was 30 μmol/L) substrate (NH2-ETVYSEVRK-biotin) at 25° C. for 1 h. Then, a total of 3 μmol/L ATP was added and the reaction was continued for 2 hrs. The products of reaction were transferred into 96-well ELISA plates containing antibody and incubated at 25° C. for 30 min. After incubation, the wells were washed with PBS and then incubated with horseradish peroxidase […]-conjugated streptavidin. The wells were visualized using 3,3′,5,5′-tetramethylbenzidine (TMB), and chromogenic reaction was ended with 2 mol/L H2SO4, the absorbance was read with a multimode plate reader (PerkinElmer, USA) at 450 nm. IC50 values and curve fits were obtained using Prism (GraphPad Software).

[2] = target: Tyrosine-protein kinase BTK (Homo sapiens, UniProt Q06187)
Sequence of Tyrosine-protein kinase BTK (Q06187 whole entry): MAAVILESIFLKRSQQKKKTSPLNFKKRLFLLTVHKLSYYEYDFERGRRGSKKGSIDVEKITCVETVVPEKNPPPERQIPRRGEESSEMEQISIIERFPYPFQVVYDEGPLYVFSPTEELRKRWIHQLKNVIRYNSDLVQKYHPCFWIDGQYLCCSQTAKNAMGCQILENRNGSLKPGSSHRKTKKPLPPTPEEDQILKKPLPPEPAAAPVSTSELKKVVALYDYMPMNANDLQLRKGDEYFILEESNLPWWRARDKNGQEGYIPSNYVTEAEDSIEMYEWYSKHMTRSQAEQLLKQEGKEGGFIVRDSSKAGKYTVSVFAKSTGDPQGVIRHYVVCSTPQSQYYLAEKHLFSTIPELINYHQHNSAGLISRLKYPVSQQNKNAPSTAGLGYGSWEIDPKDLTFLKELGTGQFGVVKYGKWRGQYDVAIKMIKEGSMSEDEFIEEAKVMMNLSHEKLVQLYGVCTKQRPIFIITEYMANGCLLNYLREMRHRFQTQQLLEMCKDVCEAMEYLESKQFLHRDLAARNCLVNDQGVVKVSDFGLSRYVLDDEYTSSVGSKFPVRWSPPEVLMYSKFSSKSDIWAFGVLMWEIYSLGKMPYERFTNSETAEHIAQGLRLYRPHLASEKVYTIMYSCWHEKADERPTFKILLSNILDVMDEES
Protocol: as §1

[3] = target: Epidermal growth factor receptor (Homo sapiens, UniProt P00533)
Sequence of Epidermal growth factor receptor (P00533 whole entry): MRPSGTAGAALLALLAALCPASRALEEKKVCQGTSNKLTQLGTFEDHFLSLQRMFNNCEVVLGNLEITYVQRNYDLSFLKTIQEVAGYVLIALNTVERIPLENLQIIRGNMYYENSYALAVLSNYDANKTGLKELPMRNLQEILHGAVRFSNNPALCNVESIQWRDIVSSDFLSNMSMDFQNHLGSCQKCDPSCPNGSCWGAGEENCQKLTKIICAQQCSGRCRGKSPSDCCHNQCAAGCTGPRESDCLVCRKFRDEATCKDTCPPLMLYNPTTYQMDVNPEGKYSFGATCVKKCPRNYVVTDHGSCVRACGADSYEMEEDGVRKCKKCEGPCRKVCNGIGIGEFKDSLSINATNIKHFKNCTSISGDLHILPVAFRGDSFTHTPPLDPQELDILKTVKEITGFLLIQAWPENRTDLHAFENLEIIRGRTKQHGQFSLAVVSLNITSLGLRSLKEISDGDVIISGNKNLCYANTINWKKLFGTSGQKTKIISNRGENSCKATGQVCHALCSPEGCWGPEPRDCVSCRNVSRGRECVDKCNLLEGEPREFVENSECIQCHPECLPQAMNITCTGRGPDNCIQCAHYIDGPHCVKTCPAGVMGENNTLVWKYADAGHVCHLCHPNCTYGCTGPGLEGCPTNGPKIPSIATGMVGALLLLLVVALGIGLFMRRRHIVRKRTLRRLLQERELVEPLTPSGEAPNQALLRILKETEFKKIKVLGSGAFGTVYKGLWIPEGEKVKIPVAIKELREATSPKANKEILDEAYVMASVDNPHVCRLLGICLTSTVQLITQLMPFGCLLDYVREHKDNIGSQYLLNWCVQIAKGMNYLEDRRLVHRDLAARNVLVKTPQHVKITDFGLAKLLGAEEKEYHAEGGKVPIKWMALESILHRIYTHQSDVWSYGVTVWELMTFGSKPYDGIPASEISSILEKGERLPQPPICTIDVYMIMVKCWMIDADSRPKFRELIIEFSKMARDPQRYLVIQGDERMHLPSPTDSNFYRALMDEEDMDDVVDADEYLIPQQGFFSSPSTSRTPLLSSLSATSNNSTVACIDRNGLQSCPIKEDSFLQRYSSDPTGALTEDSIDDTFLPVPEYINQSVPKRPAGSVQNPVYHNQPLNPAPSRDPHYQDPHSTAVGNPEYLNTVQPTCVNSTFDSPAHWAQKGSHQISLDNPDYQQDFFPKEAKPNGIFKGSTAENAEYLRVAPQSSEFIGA
Protocol: as §1

[4] = target: T2, Tyrosine-protein kinase ITK/TSK (Homo sapiens, UniProt Q08881)
T2 sequence (Q08881 whole entry): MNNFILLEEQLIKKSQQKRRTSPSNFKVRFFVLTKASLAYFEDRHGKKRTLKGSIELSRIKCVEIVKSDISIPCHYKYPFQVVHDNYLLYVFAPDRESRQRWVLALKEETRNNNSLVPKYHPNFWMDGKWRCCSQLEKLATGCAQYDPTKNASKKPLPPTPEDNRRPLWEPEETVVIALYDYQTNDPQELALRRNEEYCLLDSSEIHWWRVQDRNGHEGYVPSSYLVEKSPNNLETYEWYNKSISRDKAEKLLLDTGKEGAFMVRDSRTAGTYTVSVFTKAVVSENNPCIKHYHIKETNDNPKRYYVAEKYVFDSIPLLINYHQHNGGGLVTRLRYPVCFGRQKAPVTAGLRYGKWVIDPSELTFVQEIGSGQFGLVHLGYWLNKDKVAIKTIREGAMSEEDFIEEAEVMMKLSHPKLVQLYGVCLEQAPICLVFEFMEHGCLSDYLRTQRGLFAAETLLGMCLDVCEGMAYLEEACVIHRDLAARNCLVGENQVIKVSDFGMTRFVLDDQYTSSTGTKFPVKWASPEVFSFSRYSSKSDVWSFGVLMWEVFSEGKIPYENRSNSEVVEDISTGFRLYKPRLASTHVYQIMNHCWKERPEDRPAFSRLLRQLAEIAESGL
Protocol: as §1

| SMILES | IC50 [1] | IC50 [2] | IC50 [3] | IC50 [4] |
| --- | --- | --- | --- | --- |
| NC(=O)c1c(-c2ccc(Oc3ccccc3)cc2)nc2n1NCCC2C1CN(C(=O)/C=C/C(F)(F)F)C1 (stereo not given) [US12552798, Example 20] | 0.0703 µM | 0.008 µM | 3.24 µM | 8.65 µM |
| CC#CC(=O)N1CC(C2CCNn3c2nc(-c2ccc(Oc4ccccc4)cc2)c3C(N)=O)C1 (stereo not given) [US12552798, Example 19] |  | 0.23 µM |  |  |
